Data from patent publication US5449773A, “Platinum complexes of sucrose derivatives” (priority 1995, dated 1995).
Entries after “also recorded” stand apart in the source; their conditions may differ. Read-outs that look alike come from different tables or passages of the source.

Legend:
[1] = tested on: E. coli; settings: cited from earlier work
[2] = cells; cited from earlier work
[3] = tested on: human KB cell cultures
Description: (§1) The cytotoxicity of diaminosucrose platinum complexes was evaluated on human KB cell cultures as follows:
(§2) Graded doses of the respective diaminosucrose platinum (II) complexes tested contained in 0.1 ml of MEM medium were added to tube cultures of KB cells (contained in 1 ml of MEM medium with 4% fetal calf serum) immediately after seeding of ca. 2×10,000 cells/mi.
(§3) The incubated cultures were seeded every 3 days by 3 times dilution with the particular complex tested to maintain exponential cell growth.
(§4) After incubation the relative cytotoxic activity of the various platinum complexes was evaluated as follows:
(§5) Treated and untreated (control) tumor cell lines were viewed under the microscope and the number of dead cells quantified by visual means. Zero activity means that 100% of the treated cells survived, i.e., like the control.

[4] = tested on: human KB cell cultures; assay: Cytotoxicity test of sucrose mono-, bis- and tris(platinum) complexes on human KB cell cultures (Example 11); assay type: cell-based; settings: 10 μg/ml
Description: Cultures were seeded after 3 days by 3 times dilution with the platinum complex in order to maintain exponential growth.
The platinum complexes tested were cis-platin, a mono(platinum) complex of 6,6'-diamino-6,6'-dideoxy-1',2,3,3',4,4'-hexa-O-methylsucrose, a bis(platinum) complex of 6,6'-diamino-6,6'-dideoxy-1',2-anhydrosucrose and a tris(platinum) complex of 1',6,6' -triamino-1',6,6'-trideoxy-2,3,3',4,4'-penta-O-methylsucrose.

[5] = Solubility of sucrose platinum complexes; assay type: physicochemical; settings: water, limits the dose
[6] = tested on: human KB cell cultures; assay: Cytotoxicity test on human KB cell cultures (Examples 8 and 9); settings: cells continuously cultured with the complex
Description: as §1, §2, §3, §4, §5

[7] = tested on: Lewis lung carcinoma; assay: Effect on intraperitoneally implanted Lewis lung carcinoma in mice (Examples 10 and 12);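 further: C57BL/6 mice bearing Lewis lung tumor cells implanted intraperitoneally, treated intraperitoneally in distilled water starting day 1 after implantation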
Description: Young adult syngeneic C57BL/6 mice (ca. 17-19 grams) were implanted intraperitoneally with 3-5×10^5 Lewis Lung tumor cells. The respective diaminosucrose platinum (II) compounds were then administered intraperitoneally in distilled water commencing the first day after tumor implantation.
Lewis Lung tumor cells (3-5×10^5) were inoculated intraperitoneally (i.p.) into young adult syngeneic C57BL/6 mice (ca. 17-19g body weight). Administration of the platinum complexes (contained in 0.1 ml of distilled water) was started on day 1 after tumor implantation.

[8] = tested on: Lewis lung carcinoma; assay: Effect of dose of sucrose bis(platinum) complex on intraperitoneally implanted Lewis lung carcinoma in mice (Example 13); assay type: in vivo
Description: The effect of dosage of the sucrose bis(platinum) complex on intraperitoneally implanted Lewis lung carcinoma cells was evaluated in mice. […] Administration of the complex (in 0.1 ml of distilled water) was effected on day 2 and day 4 after implantation.

[9] = tested on: P388 leukemia; assay: Effect of dose of sucrose bis(platinum) complex on P388 leukemia in syngeneic DBA/2 mice (Example 14); assay type: in vivo; settings: for Changes of body weight day 1 to 2 / Increase in life span / Mean survival time: day 1
Description: The effect of dose of sucrose bis(platinum complex on P388 leukemia cells in syngeneic DBA/2 mice was evaluated. A 0.1 ml of 10× dilution of P388 ascites (ca. 10^6 cells) was injected intraperitoneally (i.p.) into syngeneic DBA/2 mice (ca. 20 g body weight). The i.p. administration was effected on day 1 only. The bis(platinum) complex (1.0 mg/0.1 ml distilled water) had been stored for 77 days at 4° C. before administration.

[10] = tested on: P388 leukemia; assay: Effect of sucrose bis(platinum) complex on P388 leukemia in syngeneic DBA/2 mice (Example 15); assay type: in vivo
Description: The effect of the sucrose bis(platinum) complex on P388 leukemia cells in syngeneic DBA/2 mice was further evaluated.

[11] = 0.5 mg/mouse i.p., day 1, 2, 3, 6
[12] = 2 mg×2 i.p., listed as sucrose bis(platinum) complex

N.N.[Cl-].[Cl-].[OH-].[OH-].[Pt+4] [cis, cis-diamine-dichloro-trans-dihydroxoplatinum (IV)]
prevention of DNA replication (in words) [1]: have the ability to prevent DNA replication in E. coli

N.N.[Cl][Pt][Cl] [Sample No. 1, Cis-dichlorodiamine platinum]
saturability and inhibition of accumulation (in words) [2]: accumulation is not saturable up to 3 mM cisplatin and cannot be inhibited with structural analogs | prevention of DNA replication (in words) ([1]; listed as cisplatin): have the ability to prevent DNA replication in E. coli

NC1C(O)OC(CO)C(O)C1O.[NH2][Pt]([Cl])[Cl] (centres unmarked) [Sample No. 11, N-(amminedichloroplatinato)-2-aminoglucose]
cytotoxicity (in words) [3]: appears not to exhibit toxicity immediately but rather exhibits a delayed toxic response which occurs gradually during the incubation period

COC1C(CN)OC(OC2(CN)OC(CN)C(OC)C2OC)C(OC)C1OC.[NH2][Pt]([Cl])[Cl].[NH2][Pt]([Cl])[Cl].[NH2][Pt]([Cl])[Cl] (stereo not drawn) [Sample No. 7, N,N',N"-tris[cis-amminedichloroplatinato]-1'6,6'-triamino-1',6,6'-trideoxy-2,3,3',4,4'-penta-O-methylsucrose]
Cytotoxicity ([4]; 7.9 nM, 10 days incubation): 3+ (66% of the treated cells appear to be dead) | aqueous solubility (in words) [5]: Larger dosages were not possible because of the solubility constraints | aqueous solubility (in words) ([5]; listed as sucrose tris(platinum) complex): limited solubility | minimum cytotoxic concentration [6]: 10 µg/mL | Changes of body weight day 1 to 7 [7, 11]: -0.8 g | Increase in life span [7, 11]: > 255% | Mean survival days [7, 11]: > 39.8 days | No. of mice survival/total [7, 11]: 3/5 | antitumor activity (in words) ([7]; 0.5 mg×4 i.p.): remarkable antitumor activity | reduction of body weight (in words) ([7]; 0.5 mg×4 i.p.): moderate reduction of body weight | survival and tumor-free outcome (in words) ([7]; 0.5 mg×4 i.p., observation to day 50): Two mice died of tumor growth on day 22 and day 27. Three mice survived tumor-free until the end of the observation period (day 50) | reduction of body weight (in words) ([7]; 0.5 mg×4 i.p., listed as sucrose tris(platinum) complex): moderate .reduction in body weight

COCC1(OC2OC(CN)C(OC)C(OC)C2OC)OC(CN)C(OC)C1OC.O=C1[O][Pt][O]C(=O)C12CC2 (stereo not drawn) [Sample No. 5, N,N'-(cis-[1,1-cyclopropanedicarboxylato-platinato)]-6,6'-diamino-6,6'-dideoxy-1',2,3,3',4,4'-hexa-O-methylsucrose]
cytotoxicity (in words) [3]: not very toxic

N.N.NCC1OC2OC3(COC2C(O)C1O)OC(CN)C(O)C3O.[Cl][Pt][Cl].[Cl][Pt][Cl] (stereo not drawn) [Sample No. 6, N,N'-bis[cis-amminedichloroplatinato]-6,6'-diamino-6,6'-dideoxy-1',2-anhydrosucrose]
Cytotoxicity ([4]; 11.2 nM, 14 days incubation): 3+ (66% of the treated cells appear to be dead) | Changes of body weight day 1 to 7 ([8]; 0.1 mg/mouse i.p., day 2, 4): +2.0 g | Increase in life span ([8]; 0.1 mg/mouse i.p., day 2, 4): > 135% | Mean survival time ([8]; 0.1 mg/mouse i.p., day 2, 4): > 48.8 | antitumor activity (in words) ([8]; 0.1 mg×2 i.p.): significant antitumor activity | tumor-free survival (in words) ([8]; 0.1 mg×2 i.p., observation to day 50): Three mice survived healthy and tumor-free up to the end of the observation period (day 50) | antitumor activity (in words) ([9]; 0.1 mg i.p.): no antitumor activity | Changes of body weight day 1 to 2 ([9]; 0.1 mg/mouse i.p.): -0.2 g | Increase in life span ([9]; 0.1 mg/mouse i.p.): 16% | Mean survival time ([9]; 0.1 mg/mouse i.p.): > 8.8 | antitumor activity (in words) ([9]; 2 mg / high doses, i.p., listed as sucrose bis(platinum) complex): significant antitumor activity; also recorded: definite antitumor activity | Changes of body weight day 1 to 2 ([9]; 2 mg/mouse i.p.): -1.5 g | Increase in life span ([9]; 2 mg/mouse i.p.): > 111% | Mean survival time ([9]; 2 mg/mouse i.p.): > 16.0 | activity against P388 leukemia compared with cisplatin (in words) ([9]; high doses): comparable to that of cisplatin against P388 leukemia | systemic toxicity (in words) ([9]; high doses): still not toxic systemically | Changes of body weight day 1 to 2 ([10]; 1.0 mg/mouse i.p., day 1): -1.0 g | Increase in life span ([10]; 1.0 mg/mouse i.p., day 1): > 89% | Mean survival time ([10]; 1.0 mg/mouse i.p., day 1): > 16.6 | prolongation of survival time over the controls ([10]; dose of 1.0): 84% | antitumor activity / cure (in words) ([10]; dose of 1.0, listed as sucrose bis(platinum) complex): significant antitumor activity; also recorded: one mouse appearing cured | minimum cytotoxic concentration [6]: 10 µg/mL | Changes of body weight day 1 to 7 ([7]; 2 mg/mouse i.p., day 1, 3): -3.0 g | Increase in life span ([7]; 2 mg/mouse i.p., day 1, 3): > 210% | Mean survival days ([7]; 2 mg/mouse i.p., day 1, 3): > 43.4 days | No. of mice survival/total ([7]; 2 mg/mouse i.p., day 1, 3): 3/5 | antitumor activity (in words) ([7]; 2 mg×2 i.p.): substantial antitumor activity | recovery, survival and tumor-free outcome (in words) ([7]; 2 mg×2 i.p.): All of the mice treated, however, recovered the loss of body weight and were tumor-free by day 30 | toxicity to the host / body weight (in words) ([7]; 2 mg×2 i.p.): significant reduction of body weight | antitumor activity (in words) [7, 12]: remarkable antitumor activity | recovery, survival and tumor-free outcome (in words) [7, 12]: All the mice treated gradually recovered from the toxicity; however, 2 mice died of tumor growth on days 32 and 35. Three mice survived healthy and tumor-free up to the end of the observation period (day 50) | maximum tolerable dose ([7]; i.p., per mouse, judged from body weight loss): ~2 mg×2

COCC1(OC2OC(CN)C(OC)C(OC)C2OC)OC(CN)C(OC)C1OC.[Cl][Pt][Cl] (stereo not drawn) [Sample No. 2, N-N'-(cis-dichloroplatinato)-6,6'-diamino-6,6'-dideoxy-1',2,3,3',4,4'-hexa-O-methylsucrose]
minimum cytotoxic concentration [6]: 125 µg/mL | Changes of body weight day 1 to 7 ([7]; 2 mg/mouse i.p., day 1, 3): +2.0 g | Increase in life span ([7]; 2 mg/mouse i.p., day 1, 3): -1% | Mean survival days ([7]; 2 mg/mouse i.p., day 1, 3): 13.8 days | No. of mice survival/total ([7]; 2 mg/mouse i.p., day 1, 3): 0/5 | antitumor activity (in words) ([7]; 2 mg×2 i.p.): no antitumor activity | toxicity to the host / body weight (in words) ([7]; 2 mg×2 i.p., listed as sucrose mono(platinum) complex): no antitumor activity nor toxicity to the host

N.N.[Cl][Pt]([Cl])([Cl])[Cl] [cis-cis-trans-diaminetetrachloroplatinum (IV)]
prevention of DNA replication (in words) [1]: have the ability to prevent DNA replication in E. coli

NCCN.O=C1[O][Pt][O]C(=O)C12CC2 [Sample No. 9, cis-(ethylenediamino-N,N')-1,1-cyclopropanedicarboxylatoplatinum]
cytotoxicity (in words) [3]: more toxic than Sample No. 10 or Sample No. 6

N.N.[Cl][Pt][Cl] [transplatin, trans-diamine-dichloroplatinum (II)]
prevention of DNA replication (in words) [1]: does not comprise this activity
